Data reported in patent US10596169B2, “Cancer treatment with combination of plinabulin and taxane” (BeyondSpring Inc., priority 2013, dated 2020).

Experiments:
[1] = system: MV522 human non-small cell lung tumor xenograph model; assay: Example 1: MV522 xenograft, NPI-2358 single agent and with docetaxel (TGI/TGD); format: in vivo, athymic nu/nu mice
Procedure: In vivo evaluation of plinabulin (NPI-2358) as a single agent and in combination with docetaxel in the MV522 human non-small cell lung tumor xenograph model in athymic nu/nu mice
The objective of the example was to determine potential additive or synergistic effects of plinabulin in combination with docetaxel in the MV522 model by exploring the scheduling of the drug combination explored by administering one of the agents 2 hours after the first drug was given. Significant endpoints for this experiment included mean tumor growth inhibition (TGI) or regression, tumor growth delay (TGD) in large tumor, weight loss, and mortality.
(§1) Female nude mice (Hsd: Athymic Nude-Foxn1^nu) between 5 and 6 weeks of age weighing approximately 20 grams were obtained from Harlan, Inc. (Madison, Wis.). MV522 is a conventional human NSC metastatic lung tumor cell line (U.S. Pat. No. 7,700,615 or 7,629,380). Animals were injected subcutaneously (SC) with approximately 1×10^7 MV522 cells harvested from tissue culture. When tumors grew to approximately 105 cubic millimeters (mm^3) in size (3 days following implantation), animals were pair-matched by tumor size into treatment and control groups; each treatment group contained eight mice. Animals were ear-tagged and followed individually throughout the experiment.
(§2) Initial doses were administered on Day 1 following pair-matching. The experiment was carried out as a tumor growth inhibition (TGI) and tumor growth delay (TGD) study. Group 1 endpoint was when tumor volume reached 1.2 cm^3 (TGI) and the treated groups endpoint was when each individual animal's tumor volume reached 1.5 cm^3 (TGD). […] To serve as negative controls, NPI-2358 vehicle and docetaxel vehicle were injected IP on a 2×WKLY×3 schedule and IV on a Q2D×3 schedule, respectively. Docetaxel was administered by intravenous (IV) injection via tail vein at 15 mg/kg once every other day for three treatments (Q2D×3) or at 25 mg/kg on a Q7D×3 schedule (every 7 day for three treatment). Docetaxel and docetaxel vehicle were administered two hours prior to NPI-2358 vehicle and NPI-2358, respectively, in Groups 7-9 and 12-14. For Groups 10, 11, 15, and 16, NPI-2358 was given two hours prior to docetaxel.
Mice were weighed and caliper tumor measurements taken. Tumor growth inhibition (TGI) values were calculated for each group containing treated animals using the formula below: […]
Animals experiencing complete tumor responses or animals experiencing technical or drug-related deaths were censored from final TGI calculations; however animals experiencing partial tumor responses were included in the final TGI calculations. […] TGI values for each treatment group are reported at study completion; these calculations are based on the final study day.
This arm of the study was ended on Day 74 at the sponsor's request. […] Upon TGD study completion, a Median Day of Sacrifice (MDS) was calculated for the control (C) and each treatment (T) group and used to determine tumor growth delay (T-C) using the following equations: MDS=Median [ΣIDS] T−C=MDSTreated−MDSControl
Where IDS (Individual Day of Sacrifice) is the day when each animal reached its tumor volume endpoint (1.5 cm^3); only animals reaching this endpoint were included in TGD calculations. Gross or net log10 cell kill for each treatment group was determined using the following equations: […]

[2] = Procedure: as §1, §2
Individual and group mean weights ±SD and percent weight change were recorded twice weekly until study completion beginning Day 1. Group weights on Day 42 and weight nadir values are reported.
Animals were observed twice weekly for general moribundity and daily for mortality.

[3] = G5: NPI-2358 3.75 mg/kg IP 2xWKLYx3

Structure (SMILES): CC(C)(C)c1[nH]cnc1/C=c1\[nH]c(=O)/c(=C/c2ccccc2)[nH]c1=O [NPI-2358]
- #CR (Day 25) [1, 3]: 0/0
- #CR (TGD study) [1, 3]: 0/0
- #LTS (long-term survivors) [1, 3]: 0
- #PR (Day 25) [1, 3]: 0/0
- #PR (TGD study) [1, 3]: 0/0
- % TGI [1, 3]: 2%
- Final tumor volume (Day 25) mean ± SEM [1, 3]: 1347 ± 82 mm^3
- Log10 cell kill [1, 3]: 0.0
- T-C (tumor growth delay) [1, 3]: 0
- MDS day ± SD ([1]; G5: NPI-2358 3.75 mg/kg IP 2xWKLYx3, endpoint 1.5 cm^3): 29 ± 2 days
- Tumor volume / tumor burden compared to vehicle control ([1]; single agent, Example 1): slight decrease in tumor volume
- Final weight (Day 25) % change [2, 3]: +15%
- Final weight (Day 25) mean ± SD [2, 3]: 23 ± 1 g
- Weight nadir % change [2, 3]: 0%
- Weight nadir day [2, 3]: 1
- Animal weight loss ([2]; single agent groups, Example 1, given doses and schedule): No significant animal weight loss
